According to patent US20090324513A1, “Process for Producing Chlorinated Sucrose” (Pharmed Medicare Private Limited, priority 2004, published 2009):
Values joined by “and” are separate entries in the source; they are usually repeats but may differ in a detail not shown here. Equal entries are not always repeated.

Key:
[1] = Particle size evaluated in Microtrac-X100 equipment; format: physicochemical; settings: for Particle size: other batches, ethyl acetate crystallization
Method: The particle size was evaluated in Microtrac—X100 equipment.

[2] = Solubility test of product batch; format: physicochemical; settings: result against specification: Soluble in ethanol and water. Slightly soluble in ethyl acetate

With `OC[C@H]1O[C@H](O[C@]2(CCl)O[C@H](CCl)[C@@H](O)[C@@H]2O)[C@H](O)[C@@H](O)[C@H]1Cl` [PRO 01] the Particle size ([1]; 90% of particles) was 90% ≦ 9.035 microns.

`OC[C@H]1O[C@H](O[C@]2(CCl)O[C@H](CCl)[C@@H](O)[C@@H]2O)[C@H](O)[C@@H](O)[C@H]1Cl` [PP 03] gave a Particle size ([1]; 90% of particles) of 90% ≦ 9.165 microns.

With `OC[C@H]1O[C@@H](O[C@]2(CCl)O[C@H](CCl)[C@@H](O)[C@@H]2O)[C@H](O)[C@@H](O)[C@H]1Cl` [conventional crystallization batch, 1′,6′-Dichloro-1′,6′-Dideoxy-â-D-Fructo-Furanosyl-4-Chloro-4-Deoxy-â-D-Galactopyranoside] the “individual crystal particle size at percentage” value ([1]; 10% of particles) was 0.956 microns, the “individual crystal particle size at percentage” value ([1]; 20% of particles) was 1.541 microns and the “individual crystal particle size at percentage” value ([1]; 30% of particles) was 2.093 microns. The “individual crystal particle size at percentage” value ([1]; 40% of particles) was 2.605 microns, the “individual crystal particle size at percentage” value ([1]; 50% of particles) was 3.274 microns and the “individual crystal particle size at percentage” value ([1]; 60% of particles) was 4.236 microns. The “individual crystal particle size at percentage” value ([1]; 70% of particles) was 5.311 microns, the “individual crystal particle size at percentage” value ([1]; 80% of particles) was 6.615 microns and the “individual crystal particle size at percentage” value ([1]; 90% of particles, listed as crystallized product) was “below 9.185 microns and 9.185 microns”. The “individual crystal particle size at percentage” value ([1]; 95% of particles) was 11.51 microns and the Solubility [2] was “Complies”.

`OC[C@H]1O[C@H](O[C@]2(CCl)O[C@H](CCl)[C@@H](O)[C@@H]2O)[C@H](O)[C@@H](O)[C@H]1Cl` [PRO 05] showed a Particle size ([1]; 90% of particles) of 90% ≦ 9.183 microns.

Work on `OC[C@H]1O[C@H](O[C@]2(CCl)O[C@H](CCl)[C@@H](O)[C@@H]2O)[C@H](O)[C@@H](O)[C@H]1Cl` [PP 02] yielded a Particle size ([1]; 90% of particles) of 90% ≦ 9.125 microns.
